Laboratory results: ChEMBL document CHEMBL1141847, “A new antibiotic nortriterpene quinone methide from Maytenus catingarum” (1999)
Values after ≈ are worked out from the molar mass of the structure shown. Active and inactive are the calls of the source. The rule behind the calls is not given here.

Experiments:
[1] = tested on: Staphylococcus aureus; assay: Antimicrobial activity against Staphylococcus aureus ATCC 6538; assay type: functional
[2] = tested on: Salmonella typhimurium; assay: Antimicrobial activity against sSalmonella Typhimurium UBC1; assay type: functional, organism-based; conditions: Salmonella enterica subsp. enterica serovar Typhimurium
[3] = tested on: Candida albicans; assay: Antimicrobial activity against Candida albicans UBC2; assay type: functional, organism-based
[4] = tested on: Escherichia coli; assay: Antimicrobial activity against Escherichia coli CECT99; assay type: functional, organism-based
[5] = tested on: Bacillus subtilis; assay: Antimicrobial activity against Bacillus subtilis CECT39; assay type: functional

MIC [1]: 5 µg/mL (≈ 10.1 µM) | MIC [5]: 1.25 µg/mL (≈ 2.53 µM)
Compound: COC(=O)[C@@]1(C)C[C@@H]2[C@](C)(CC1=O)C[C@H](O)[C@]1(C)C3=CC=C4C(=CC(=O)C(O)=C4C)[C@]3(C)CC[C@@]21C
Activity [2]: inactive | Activity [3]: inactive | Activity [4]: inactive
